Reference: paper PMC6271910, “Exploiting Natural Products to Build Metalla-Assemblies: The Anticancer Activity of Embelin-Derived Rh(III) and Ir(III) Metalla-Rectangles” (Molecules, 2014)
Where two headings read alike, the source gives them in different places.

Legend:
[1] = test system: DU-145 cells (prostate cancer); test: MTT assay, DU-145; format: cell-based, human; settings: averaged over three experiments, read-out: Half maximum inhibitory concentration (IC50), DU-145
Description: (§1) To understand the effect of these complexes on the proliferation of cancerous and noncancerous cells, MTT assays were carried out following the protocol reported by Wilson et al.. The noncancerous (HEK-293) and the human cancerous cell lines (DU-145, A-549 and HeLa) were grown according to the supplier’s recommendations. All cell lines were treated for 48 h at different concentrations of complexes (0.25 µM, 0.5 µM, 0.75 µM, 1 µM, 5 µM, 10 µM, 25 µM, 50 µM and 100 µM). After treatment, the number of viable cells was estimated using a MTT assay. […] Cells treated with doxorubicin in the same concentration range were considered as controls.
(§2) The anticancer activity of the complex was determined using the 3-(4,5-dimethylthiazol-2-yl)-2,5-diphenyltetrazolium bromide (MTT) assay. First 1 × 10^4 cells per well were seeded in Dulbecco’s modified Eagle’s medium (DMEM, 100 µL) supplemented with 10% fetal bovine serum in each well of 96-well microculture plates and incubated for 24 h at 37 °C in a CO2 incubator. Complexes were diluted to the desired concentrations in culture medium and added to the wells with respective vehicle control. After 48 h of incubation, MTT (10 µL, 5 mg mL^−1) was added to each well and the plates were further incubated for 4 h. Then the supernatant from each well was carefully removed, formazan crystals were dissolved in DMSO (100 µL) and absorbance at 570 nm was recorded.

[2] = test system: A-549 cells (lung cancer); test: MTT assay, A-549; format: cell-based, human
Description: as §1, §2

[3] = test system: HeLa cells (cervical cancer); test: MTT assay, HeLa; format: cell-based, human; settings: 48 h, averaged over three experiments, read-out: Half maximum inhibitory concentration (IC50), HeLa
Description: as §1, §2

[4] = test system: CT DNA (calf-thymus DNA); test: Thermal denaturation study of CT DNA; format: binding; settings: for ΔTm of CT DNA: incubation 12 h at 37 °C, PE buffer pH 7.4, complex/DNA ratio 1:1, CT DNA alone melts at 59.3 °C
Description: The DNA binding affinity of the synthesized complexes was evaluated through thermal denaturation studies with duplex CT DNA using a modified reported procedure. […]

[5] = test system: HEK-293 (normal human embryonic kidney cells); test: MTT assay, HEK-293; format: cell-based; settings: for IC50: 48 h, MTT, noncancerous cells, averaged over three experiments, read-out: Half maximum inhibitory concentration (IC50), HEK-293; for Selectivity for cancerous over noncancerous cells (HEK-293): IC50 on HEK-293 compared with cancer cell lines
Description: as §1, §2

[6] = test system: A-549 cells; test: Cell cycle assay by flow cytometry (propidium iodide); format: cell-based, human; settings: A-549, 500 nM, 24 h; for Sub G1 (%): control 1.37; for G2/M (%): control 16.37; for S (%): control 17.15; for G0/G1 (%): control 54.62
Description: In order to corroborate the results obtained in the MTT assays and to better understand the action of metalla-rectangles 3 and 8 on cells, the effects on the cell cycle inhibition and the interference in cell proliferations using a standard cell cycle assay were studied. The results obtained are presented in (Table 2). On analyzing the results, it was evident that the cell cycle was inhibited at the subG1 phase with both metalla-rectangles.
Flow cytometric analysis (FACS) was performed to evaluate the distribution of the cells in different cell cycle phases. A-549 cells were incubated with metalla-rectangles 3 and 8 at 500 nM concentration for 24 h. Untreated cells were considered as control sample. Untreated and treated cells were harvested, washed with PBS, fixed in ice cold 70% ethanol and stained with propidium iodide (Sigma Aldrich, St. Louis, MO, USA). Cell cycle was performed by using Becton Dickinson FACS Caliber (Franklin Lakes, NJ, USA).

[7] = test system: A-549 cells; test: Apoptosis assay (annexin-V/propidium iodide flow cytometry); format: cell-based, human; settings: A-549, 500 nM, 48 h; for Early apoptotic (%): control 0.84; for Late apoptotic (%): control 6.18; for Necrotic (%): control 14.61; for Living cells (%): control 78.37; for Total apoptotic cells (%): early + late apoptotic, control 7.02
[8] = test system: CT DNA; test: CD spectroscopic study with CT DNA; format: binding, calf; settings: CT DNA/complex 1:0.5 to 1:1, KBPES buffer pH 7.0, 25 °C
Description: Circular dichroism (CD) studies can provide information on the changes in the DNA conformation upon interactions with small molecules. These changes in the DNA topology are giving useful information on the nature of the DNA-complex interactions. […] These bands are characteristic to the profile of the B form of DNA [24].
Circular dichroism (CD) experiments were performed using a Jasco 815 CD spectropolarimeter (Jasco, Tokyo, Japan). CD spectra were recorded from 230 to 300 nm to find the conformational changes in the CT DNA after interaction with the complexes. For each CD experiment, CT DNA (15 × 10^‒6 M) was used initially. Further, for the characterization of complex‒DNA interaction, the CD spectra were recorded in 1:0.5 and 1:1 CT DNA/complex molar ratios. CD titrations were performed in KBPES buffer (30 mM Potassium Phosphate with 100 mM KCl, pH 7.0) at 25 °C. Each spectrum was recorded three times and the average of three scans was taken.

[9] = test system: CT DNA; test: UV-visible spectroscopic titrations with CT DNA; format: binding, calf; settings: 25 µM complex, KBPES buffer pH 7.0, 25 °C
Excerpt: The mode of the DNA-complex interaction was further studied by UV-visible experiments. The results from these studies will indicate the mode of DNA-complex interaction. The UV-visible spectra of metalla-rectangles 4, 6 and 8, the iridium derivatives, show a prominent absorption band at 210 nm. […] The hyperchromicity of the Soret band of the metalla-rectangles was more evident at 210 nm. A continuous hyperchromicity of the Soret band upon addition of metalla-rectangles 4, 6 and 8 to a CT DNA solution is an indication of electrostatic binding or partial unwinding of the CT DNA [27].
UV-Visible spectroscopic titrations were performed using an ABI Lambda 40 UV/Vis spectrophotometer (Foster City, CA, USA) at 25 °C using 1 cm path length quartz cuvettes. Stock solutions of complex (25 µM) was prepared in DMSO and CT DNA (25 µM) were prepared in KBPES buffer (30 mM Potassium Phosphate with 100 mM KCl, pH 7.0). The quartz cells were thoroughly cleaned with distilled water and followed by nitric acid (~0.1 N) after each experiment. UV-visible absorption titrations were done by adding CT DNA stock solution (25 µM) in KBPES buffer (30 mM Potassium Phosphate with 100 mM KCl, pH 7.0) to the quartz cuvette containing approximately 25 µM complex solutions. Preparation of CT DNA and complex solutions was done on the same day as the experiment. Titrations were performed until the band remained at a fixed wavelength upon successive additions of CT DNA.

[10] = test system: A-549 cells; test: Mitochondrial outer membrane permeability assay (MitoTracker Red, confocal microscopy); format: cell-based, human; settings: A-549, 500 nM
Description: The aggregation of mitochondria was reported to occur when cells enter into apoptosis, and accordingly led to the release of cytochrome c into the cytosol, which in turn triggered the cascade pathway to apoptosis. From Figure 6, it was clear that mitochondria were getting bundled with metalla-rectangle 3, indicating the onset of apoptosis in A-549 cells.
Compound [3](CF3SO3)4 (500 nM) with treated and untreated A-549 cells were incubated in a medium containing MitoTracker Red™ (50 nM) for 30 min at culture conditions recommended by the supplier. Cells were washed and fixed with 4% paraformaldehyde for 15 min, and permeabilized with Triton X-100 (0.1%) for each 10 min. The cover glasses after PBS wash were mounted on to the glass slides, sealed with nail polish and observed using laser scanning confocal microscopy (Leica TCS SP5, Heidelberg, Germany). The MitoTracker Red™ was excited using 543 nm laser source and the fluorescence emission signals were collected at 570 nm to 635 nm.

[11] = 48 h, averaged over three experiments, read-out: Half maximum inhibitory concentration (IC50), A-549
[12] = 48 h, read-out: IC50 in A-549 cells

Row | Molecule | ΔTm of CT DNA [4] | IC50 ([1]; 48 h) | IC50 [2, 11] | IC50 [3] | IC50 [5] | Change of the absorption (Soret) band at 210 nm on addition of CT DNA [9] | other results
1 | COc1cccc2c1C(=O)c1c(O)c3c(c(O)c1C2=O)C[C@@](O)(C(=O)CO)C[C@@H]3O[C@H]1C[C@H](N)[C@H](O)[C@H](C)O1 [doxorubicin, reference compound] | 9.5 °C |  |  |  |  |  | IC50 ([1]; Homo sapiens, DU-145, 48 h): 1280 ± 200 nM; IC50 ([2]; Homo sapiens, A549, 48 h, averaged over three experiments, read-out: Half maximum inhibitory concentration (IC50), A-549): 850 ± 100 nM; IC50 ([3]; Homo sapiens, HeLa): 910 ± 200 nM
2 | [(η^5-C5Me5)4Ir4(μ2-1,2-bis(4-pyridyl)ethylene-ĸN)2(μ4-C6HRO4-ĸO)2](CF3SO3)4 [[8](CF3SO3)4] | 12.7 °C | 720 ± 200 nM | 670 ± 400 nM | 590 ± 200 nM | 70800 ± 400 nM | continuous increase of its intensity | IC50 [2, 12]: ~670 nM; Selectivity for cancerous over noncancerous cells (HEK-293) [5]: two orders of magnitude; Sub G1 (%) [6]: 11.98%; G2/M (%) [6]: 3.49%; S (%) [6]: 7.95%; G0/G1 (%) [6]: 66.54%; Early apoptotic (%) [7]: 1.58%; Late apoptotic (%) [7]: 13.04%; Necrotic (%) [7]: 22.92%; Living cells (%) [7]: 62.46%; Total apoptotic cells (%) [7]: 14.62%; Change of the positive CD band of CT DNA (275 nm) [8]: higher hyperchromicity
3 | [(η^5-C5Me5)4Ir4(μ2-4,4'-bipyridine-ĸN)2(μ4-C6HRO4-ĸO)2](CF3SO3)4 [[6](CF3SO3)4] | 7.9 °C | 2530 ± 200 nM | 840 ± 100 nM | 1040 ± 300 nM | 40300 ± 400 nM | continuous increase of its intensity | 
4 | [(η^5-C5Me5)4Ir4(μ2-pyrazine-ĸN)2(μ4-C6HRO4-ĸO)2](CF3SO3)4 [[4](CF3SO3)4] | 6.8 °C | 16000 ± 400 nM | 3180 ± 200 nM | 4160 ± 300 nM | 31200 ± 500 nM | continuous increase of its intensity | 
5 | [(η^5-C5Me5)4Rh4(μ2-1,2-bis(4-pyridyl)ethylene-ĸN)2(μ4-C6HRO4-ĸO)2](CF3SO3)4 [[7](CF3SO3)4] | 8.2 °C | 4980 ± 300 nM | 2010 ± 200 nM | 5750 ± 200 nM | 62100 ± 300 nM | same hyperchromicity | 
6 | [(η^5-C5Me5)4Rh4(μ2-4,4'-bipyridine-ĸN)2(μ4-C6HRO4-ĸO)2](CF3SO3)4 [[5](CF3SO3)4] | 7.3 °C | 4670 ± 200 nM | 670 ± 100 nM | 1010 ± 300 nM | 41300 ± 400 nM | same hyperchromicity | 
7 | [(η^5-C5Me5)4Rh4(μ2-pyrazine-ĸN)2(μ4-C6HRO4-ĸO)2](CF3SO3)4 [[3](CF3SO3)4] | 12.9 °C | 540 ± 200 nM | 500 ± 100 nM | 520 ± 200 nM | 62000 ± 500 nM | same hyperchromicity | IC50 ([1]; 48 h, listed as [3]^4+): 500 nM; IC50 [2, 12]: ~500 nM; IC50 ([3]; listed as [3]^4+): 500 nM; Selectivity for cancerous over noncancerous cells (HEK-293) [5]: two orders of magnitude; Melting temperature of CT DNA in the presence of the compound ([4]; CT DNA alone 59.3 °C): 72.2 °C; Sub G1 (%) [6]: 31.97%; G2/M (%) [6]: 1.35%; S (%) [6]: 2.87%; G0/G1 (%) [6]: 56.29%; Early apoptotic (%) [7]: 4.73%; Late apoptotic (%) [7]: 23.30%; Necrotic (%) [7]: 11.57%; Living cells (%) [7]: 60.40%; Total apoptotic cells (%) [7]: 28.03%; Total apoptotic cells (%) ([7]; listed as 3): about 28.03%; Effect on mitochondria distribution (MitoTracker Red) [10]: aggregations of mitochondria were observed; Change of the positive CD band of CT DNA (275 nm) [8]: slight hyperchromicity
